Reference: PMC8734228 (Cancer discovery, 2021)

Experiments:
FLC PDX cells = assay: Validation screen on cells dissociated from FLC PDX; format: cell-based, human; conditions: for Efficacy ranking in the screen: ranked by average −log10EC50 for FLC1-5 minus −log10EC50 for PHH; for Effect on FLC PDX cells in vitro (dose response, normalized percent survival): 10nM-10μM, FLC1-6; for Effect on FLC PDX cells in vitro (dose response, normalized percent survival) / EC50: 72 h; for EC50: read-out: EC50 against FLC PDX in vitro, across all FLC PDX lines
FLC1 cells = assay: Role of ROS: survival with or without N-acetyl cysteine 10mM; format: cell-based, human; conditions: NAC 10mM, 72 h
[1] = tested on: cells dissociated directly from patient tumors (FLC.T6-T11); assay: Direct from patient in vitro screening; format: cell-based, human; conditions: for Sensitivity of cells tested directly from patients: 10μM-10nM, 72h, Cell Titer Glo; for Drug sensitivity of FLC.T6 compared with derived PDX FLC6 (EC50): cells direct from patient tumor vs cells from its PDX
[2] = tested on: cells dissociated from PDX FLC1 and FLC5; assay: Primary high throughput screen, 1μM, 72 h; format: cell-based, human; conditions: pass = survival <60%
[3] = tested on: primary human hepatocytes (PHH); assay: Validation counter-screen on primary human hepatocytes; conditions: 72 h; for EC50: read-out: EC50 PHH; for Effect on PHH (dose response, normalized percent survival): up to 10 μM
FLC3 PDX cells = assay: Validation screen, 11-point dose response, 72 h, Cell Titer Glo; format: cell-based, human; conditions: read-out: EC50 FLC; FLC3, 72 h
FLC4 PDX cells = assay: as above; format: cell-based, human; conditions: read-out: EC50 FLC; FLC4, 72 h
FLC1 PDX cells = assay: as above; format: cell-based, human; conditions: read-out: EC50 FLC; FLC1, 72 h
FLC2 PDX cells = assay: as above; format: cell-based, human; conditions: read-out: EC50 FLC; FLC2, 72 h
FLC5 PDX cells = assay: as above; format: cell-based, human; conditions: read-out: EC50 FLC; FLC5, 72 h
FLC PDX = assay: In vivo drug testing of HDAC inhibitors in mice bearing PDX
FLC5 cells = assay: Anchor screen, synergy assay; format: cell-based, human; conditions: FLC5, ZIP, Bliss and HSA scores
FLC1,3,5 cells = assay: Synergy assay, combination matrix with panobinostat; format: cell-based, human

For `Cc1ccc(S(=O)(=O)c2ccc([N+](=O)[O-])o2)cc1` [NSC697923], the “Efficacy ranking in the screen” value (FLC PDX cells) was 7, the “Effect of N-acetyl cysteine (NAC) on the toxicity of the drug” value (“Effect of N-acetyl cysteine (NAC)” below) (FLC1 cells) was “completely abrogated” and the “Sensitivity of cells tested directly from patients” value (“Sensitivity … from patients” for short) [1] was “blunted response”. For the same molecule, the “Drug sensitivity of FLC.T6 compared with derived PDX FLC6 (EC50)” value [1] was “outliers”.

With `CC(C)c1c2cc(-c3ccnc(NC4CCC(NC5CCOCC5)CC4)n3)ccc2nn1C` (centres unmarked) [LY2857785] the “Effect of N-acetyl cysteine (NAC)” value (FLC1 cells) was “mildly attenuated” and the “Sensitivity … from patients” value [1] was “some sensitivity”.

For `COc1cccc(-c2cc(=O)c3ccccc3o2)c1N` [PD98059], the “Result in primary screen (normalized percent survival)” value [2] was “None”.

In the case of `C=C1C[C@@H]2[C@H](CC[C@]3(C)C(=O)CC[C@@H]23)[C@@]2(C)C=CC(=O)C=C12` [exemestane], the “Result in primary screen (normalized percent survival)” value [2] is reported as “did not pass our primary screen”.

For `O=P1(NCCCl)OCCCN1CCCl` (centres unmarked) [ifosfamide], the “Result in primary screen (normalized percent survival)” value [2] was “no to minimal activity”.

For `N#C/C(=C(/N)Sc1ccc(N)cc1)c1ccccc1C(F)(F)F` [SL-327], the “Result in primary screen (normalized percent survival)” value [2] was “None”.

In the case of `Cc1ccc(NC2=CC(=O)c3sc(C)nc3C2=O)cc1` [ryuvidine], the “Effect on FLC PDX cells in vitro (dose response, normalized percent survival)” value (FLC PDX cells) is reported as “effective against all PDX lines”, the “Efficacy ranking in the screen” value (FLC PDX cells) is reported as “third” and the EC50 (FLC PDX cells) is reported as 0.02 to 0.2 µM. The EC50 [3] was greater than 10 µM and the “Effect of N-acetyl cysteine (NAC)” value (FLC1 cells) was “completely abrogated”.

With `COc1ccc(C[C@H](NC(=O)[C@H](C)NC(=O)CN2CCOCC2)C(=O)N[C@@H](Cc2ccccc2)C(=O)C2(C)CO2)cc1` (stereo in doubt) [ONX-0914] the “Result in primary screen (normalized percent survival)” value [2] was “did not see any effect”.

With `CC(=O)O/N=C1\C(=O)N(Cc2cc(Cl)ccc2Cl)c2ccc(Cl)cc21` [LDN-57444] the “Result in primary screen (normalized percent survival)” value [2] was “did not see any effect”.

For `O=C(NC[C@H](O)CO)c1ccncc1Nc1ccc(I)cc1F` [pimasertib], the “Result in primary screen (normalized percent survival)” value [2] was “None”.

In the case of `CC(C)C[C@H](NC(=O)CNC(=O)c1cc(Cl)ccc1Cl)B(O)O` [ixazomib], the “Result in primary screen (normalized percent survival)” value [2] is reported as “did not see any effect”.

For `NC1(C(=O)N[C@@H](CCO)c2ccc(Cl)cc2)CCN(c2nc[nH]c3nccc2-3)CC1` [Capivasertib (AZD5363), Capivasertib], the EC50 (FLC3 PDX cells) was 5.15 µM, the EC50 (FLC4 PDX cells) was 2.09 µM and the EC50 [3] was greater than 10 µM. It also gave an EC50 (FLC1 PDX cells) of 2.98 µM, an EC50 (FLC2 PDX cells) of 3.85 µM and an EC50 (FLC5 PDX cells) of 12.6 µM.

`C[C@]12CCC(=O)C(O)=C1CC[C@@H]1[C@@H]2CC[C@]2(C)C(=O)CC[C@@H]12` [formestane] was tested, and the “Result in primary screen (normalized percent survival)” value [2] was “did not pass our primary screen”.

For `Cc1cc(I)ccc1Nc1c(C(=O)NOCC2CC2)cc(F)c(F)c1F` [PD198306], the “Result in primary screen (normalized percent survival)” value [2] was “None”.

In the case of `CCc1c2c(nc3ccc(O)cc13)-c1cc3c(c(=O)n1C2)COC(=O)[C@]3(O)CC` [SN-38], the “Effect on FLC PDX cells in vitro (dose response, normalized percent survival)” value (FLC PDX cells) is reported as “effective only against FLC1,3,4”, the “Efficacy ranking in the screen” value (FLC PDX cells) is reported as 13 and the “Effect of N-acetyl cysteine (NAC)” value (FLC1 cells) is reported as “no effect”. The “Sensitivity … from patients” value [1] was “sensitive” and the “Drug sensitivity of FLC.T6 compared with derived PDX FLC6 (EC50)” value [1] was “correlated well”.

In the case of `CC(C)C[C@H](NC(=O)CNC(=O)c1cc(Cl)ccc1Cl)B1OC(=O)C(CC(=O)O)(CC(=O)O)O1` [MLN9708], the “Result in primary screen (normalized percent survival)” value [2] is reported as “did not see any effect”.

With `CC(C)(C#N)c1cc(Cn2cncn2)cc(C(C)(C)C#N)c1` [anastrozole] the “Result in primary screen (normalized percent survival)” value [2] was “did not pass our primary screen”.

With `N#Cc1ccc(C2CCCc3cncn32)cc1` (centres unmarked) [fadrozole] the “Result in primary screen (normalized percent survival)” value [2] was “did not pass our primary screen”.

For `Cn1cnc2c(F)c(Nc3ccc(Br)cc3F)c(C(=O)NOCCO)cc21` [binimetinib], the “Result in primary screen (normalized percent survival)” value [2] was “None”.

For `O=C(NOCC1CC1)c1ccc(F)c(F)c1Nc1ccc(I)cc1Cl` [PD184352], the “Result in primary screen (normalized percent survival)” value [2] was “None”.

With `CONC(=O)[C@H]1[C@@H](O)[C@@]2(O)c3c(OC)cc(OC)cc3O[C@@]2(c2ccc(OC)cc2)[C@@H]1c1ccccc1` [CR-1-31-B] the “Effect on PHH (dose response, normalized percent survival)” value [3] was “no effect” and the “Sensitivity … from patients” value [1] was “sensitive”.

`C=CC(=O)N1CC/C(=C\c2ccc(F)c([N+](=O)[O-])c2)C(=O)/C(=C/c2ccc(F)c([N+](=O)[O-])c2)C1` [VLX1570] was tested, and the “Efficacy ranking in the screen” value (FLC PDX cells) was 31, the “Effect of N-acetyl cysteine (NAC)” value (FLC1 cells) was “completely abrogated” and the “Sensitivity … from patients” value [1] was “blunted response”. The “Drug sensitivity of FLC.T6 compared with derived PDX FLC6 (EC50)” value [1] was “outliers”.

With `Cc1cc(C(=O)NOCCO)c(Nc2ccc(I)cc2F)n(C)c1=O` [AZD8330] the “Result in primary screen (normalized percent survival)” value [2] was “None”.

`O=C(NOC[C@H](O)CO)c1ccc(F)c(F)c1Nc1ccc(I)cc1F` [mirdametinib] was tested, and the “Result in primary screen (normalized percent survival)” value [2] was “None”.

With `Clc1ccc(N/N=C(\c2ccccc2)c2ccccn2)nc1` [JIB-04] the “Effect on FLC PDX cells in vitro (dose response, normalized percent survival)” value (FLC PDX cells) was “effective against all PDX lines”, the “Efficacy ranking in the screen” value (FLC PDX cells) was “second” and the EC50 (FLC PDX cells) was 0.02 to 0.2 µM. For the same molecule, the EC50 [3] was greater than 10 µM.

For `N.N.[Cl][Pt][Cl]` [cisplatin], the “Result in primary screen (normalized percent survival)” value [2] was “no to minimal activity”.

`COc1cc(C[C@H]2C(=O)OC[C@@H]2Cc2ccc(OC)c(OC)c2)ccc1O` [arctigenin] was tested, and the “Result in primary screen (normalized percent survival)” value [2] was “None”.

`CN(C)Cc1cccc(N/C(=C2\C(=O)Nc3cc(C(=O)N(C)C)ccc32)c2ccccc2)c1` [BIX02189] was tested, and the “Result in primary screen (normalized percent survival)” value [2] was “None”.

With `O=C1[O][Pt]2([NH][C@@H]3CCCC[C@H]3[NH]2)[O]C1=O` [oxaliplatin] the “Result in primary screen (normalized percent survival)” value [2] was “no to minimal activity”.

With `Cn1cc(CNCC2CCN(c3ncc(C(=O)NO)cn3)CC2)c2ccccc21` [quisinostat] the “Effect of N-acetyl cysteine (NAC)” value (FLC1 cells) was “mildly attenuated”, the “Sensitivity … from patients” value [1] was “sensitive” and the “Tumor growth at 14 days” value (FLC PDX; 10mg/kg IP) was 7%. The “Apoptosis as assayed by TUNEL” value (FLC PDX; 10mg/kg, after 14 days) was “no significant increase”, the “Mitotic figures, Ki67 and pHH3 positive cells in tumors” value (FLC PDX; 10mg/kg, after 14 days) was “almost complete disappearance” and the “Macroscopic assessment of tumors” value (FLC PDX; quisinostat 10mg/kg daily IP, 14 days) was “necrosis in the drug treated tumors”.

In the case of `CC(C)(C)OC(=O)N[C@H]1CCCCC/C=C\[C@@H]2C[C@@]2(C(=O)NS(=O)(=O)C2CC2)NC(=O)[C@@H]2C[C@@H](OC(=O)N3Cc4cccc(F)c4C3)CN2C1=O` [danoprevir], the “Result in primary screen (normalized percent survival)” value [2] is reported as “did not see any effect”.

With `N#CC(=C(/N)Sc1ccccc1N)/C(C#N)=C(/N)Sc1ccccc1N` [U0126] the “Result in primary screen (normalized percent survival)” value [2] was “None”.

`N.N.O=C([O-])C1(C(=O)[O-])CCC1.[Pt+2]` [carboplatin] was tested, and the “Result in primary screen (normalized percent survival)” value [2] was “no to minimal activity”.

With `CC(=O)Nc1cccc(-n2c(=O)n(C3CC3)c(=O)c3c(Nc4ccc(I)cc4F)n(C)c(=O)c(C)c32)c1` [trametinib] the “Synergy with A1331852” value (FLC5 cells) was “some synergy” and the “Result in primary screen (normalized percent survival)” value [2] was “None”.

With `CCc1cnn2c(NCc3ccc[n+]([O-])c3)cc(N3CCCC[C@H]3CCO)nc12` [dinaciclib] the “Effect on PHH (dose response, normalized percent survival)” value [3] was “toxic” and the “Sensitivity … from patients” value [1] was “some sensitivity”.

For `Cc1c2c(nn1C)CSCc1cc(n(C)n1)CSc1cc(c3ccccc3c1)OCCCc1c(C(=O)O)n(C)c3c-2c(Cl)ccc13` [AZD5991], the “Synergy with panobinostat (ZIP synergy score)” value (FLC1,3,5 cells) was “more modest synergy”.

With `CC[C@@]1(O)C(=O)OCc2c1cc1n(c2=O)Cc2cc3c(CN(C)C)c(O)ccc3nc2-1` [topotecan] the “Synergy with A1331852” value (FLC5 cells) was “some synergy”.

In the case of `CN(C)Cc1cccc(N/C(=C2\C(=O)Nc3cc(C(N)=O)ccc32)c2ccccc2)c1` [BIX02188], the “Result in primary screen (normalized percent survival)” value [2] is reported as “None”.

For `CNC(=O)c1cccc(-c2ccc3c(N4CCOC[C@@H]4C)nc(N4CCOC[C@@H]4C)nc3n2)c1` [visusertib], the “Synergy with A1331852” value (FLC5 cells) was “some synergy”.

With `CC(=O)[C@]1(O)Cc2c(O)c3c(c(O)c2[C@@H](O[C@H]2C[C@H](N)[C@H](O)[C@H](C)O2)C1)C(=O)c1ccccc1C3=O` [idarubicin] the “Synergy with A1331852” value (FLC5 cells) was “some synergy” and the “Effect on FLC PDX cells in vitro (dose response, normalized percent survival)” value (FLC PDX cells) was “showed an effect on some of the FLC PDX”.

In the case of `O=c1[nH]cc(F)c(=O)[nH]1` [fluorouracil], the “Result in primary screen (normalized percent survival)” value [2] is reported as “no to minimal activity”.

In the case of `CC(C)C[C@H](NC(=O)[C@H](Cc1ccccc1)NC(=O)c1cnccn1)B(O)O` [bortezomib], the “Result in primary screen (normalized percent survival)” value [2] is reported as “did not see any effect”.

For `Cn1c(=O)c(F)c(Nc2ccc(I)cc2F)c2c(=O)n(C[C@@H](O)CO)cnc21` [TAK-733], the “Result in primary screen (normalized percent survival)” value [2] was “None”.

With `Cc1c(-c2ccc(N3CCc4cccc(C(=O)Nc5nc6ccccc6s5)c4C3)nc2C(=O)O)cnn1CC12CC3CC(CC(C3)C1)C2` [A1331852] the “Synergy with panobinostat (ZIP synergy score)” value (FLC1,3,5 cells) was “synergized”.

In the case of SBI-0640756, the “Therapeutic window for FLC over PHH” value (FLC PDX cells; FLC PDX cells compared with PHH) is reported as “clear therapeutic window”, the “Efficacy ranking in the screen” value (FLC PDX cells) is reported as 19 and the “Effect of N-acetyl cysteine (NAC)” value (FLC1 cells) is reported as “completely abrogated”. The “Sensitivity … from patients” value [1] was “sensitive”.
